ChEMBL document CHEMBL2413036, “Isoswinholide B and swinholide K, potently cytotoxic dimeric macrolides from Theonella swinhoei” (Bioorg Med Chem, 2013)

Experiments:
HepG2 [1] = assay: Antiproliferative activity against human HepG2 cells assessed as cell growth inhibition at 100 nM after 48 hrs by MTT assay relative to swinholide-A; assay type: functional
HepG2 [2] = assay: Antiproliferative activity against human HepG2 cells after 48 hrs by MTT assay; assay type: functional, cell-based; conditions: HepG2, 48 h

| IC50 (HepG2 [2]) [nM] | Structure (SMILES) | Efficacy (HepG2 [1]) [%] |
| --- | --- | --- |
| 30 | CO[C@H]1C[C@H](CC[C@H](C)[C@H](O)[C@H](C)[C@H]2OC(=O)/C=C/C(C)=C/C[C@H](O)C[C@@H]3C=CC[C@@H](C[C@H](OC)[C@@H](C)[C@@H](O)C[C@@H](O)[C@H](C)[C@@H]([C@@H](C)[C@@H](O)[C@@H](C)CC[C@H]4C[C@H](OC)C[C@H](C)O4)OC(=O)/C=C/C(C)=C/C[C@H](O)C[C@@H]4C=CC[C@@H](C[C@H](O)[C@@H](C)[C@@H](O)C[C@@H](O)[C@@H]2C)O4)O3)O[C@@H](C)C1 | 45.35 |
| 1500 | CO[C@H]1C[C@H](CC[C@H](C)[C@H](O)[C@H](C)[C@@H](O)[C@@H](C)[C@H]2C[C@H](O)[C@H](C)[C@@H](OC)C[C@@H]3CC=C[C@@H](C[C@@H](O)C/C=C(C)/C=C/C(=O)O[C@H]([C@@H](C)[C@@H](O)[C@@H](C)CC[C@H]4C[C@H](OC)C[C@H](C)O4)[C@@H](C)[C@H](O)C[C@H](O)[C@H](C)[C@@H](OC)C[C@@H]4CC=C[C@@H](C[C@@H](O)C/C=C(C)/C=C/C(=O)O2)O4)O3)O[C@@H](C)C1 | 7.52 |
| 15 | C=C1/C=C/C(=O)O[C@H]([C@@H](C)[C@@H](O)[C@@H](C)CC[C@H]2C[C@H](OC)C[C@H](C)O2)[C@@H](C)[C@H](O)C[C@H](O)[C@H](C)[C@@H](OC)C[C@@H]2CC=C[C@@H](C[C@@H](O)C/C=C(C)/C=C/C(=O)O[C@H]([C@@H](C)[C@@H](O)[C@@H](C)CC[C@H]3C[C@H](OC)C[C@H](C)O3)[C@@H](C)[C@H](O)C[C@H](O)[C@H](C)[C@@H](OC)C[C@@H]3CC=C[C@@H](C[C@@H](O)C[C@H]1O)O3)O2 | 42.67 |
| 35 | CO[C@H]1C[C@H](CC[C@H](C)[C@H](O)[C@H](C)[C@H]2OC(=O)/C=C/C(C)=C/C[C@H](O)C[C@@H]3CCC[C@H](C[C@H](OC)[C@@H](C)[C@@H](O)C[C@@H](O)[C@H](C)[C@H](O)[C@@H](C)[C@H]([C@@H](C)CC[C@H]4C[C@H](OC)C[C@H](C)O4)OC(=O)/C=C/C(C)=C/C[C@H](O)C[C@@H]4C=CC[C@H](C[C@H](OC)[C@@H](C)[C@@H](O)C[C@@H](O)[C@@H]2C)O4)O3)O[C@@H](C)C1 [ISOSWINHOLIDE A] | 16.28 |
| 25 | CO[C@@H]1C[C@@H](O)C[C@@H](O)[C@H](C)[C@@H]([C@@H](C)[C@@H](O)[C@@H](C)CC[C@H]2C[C@H](OC)C[C@H](C)O2)OC(=O)/C=C/C(C)=C/C[C@H](O)C[C@@H]2C=CC[C@H](C[C@H](OC)[C@@H](C)[C@@H](O)C[C@@H](O)[C@H](C)[C@@H]([C@@H](C)[C@@H](O)[C@@H](C)CC[C@H]3C[C@H](OC)C[C@H](C)O3)OC(=O)/C=C/C(C)=C/C[C@H](O)C[C@@H]3CCC[C@H](C1)O3)O2 [SWINHOLIDE B] | 89.38 |

| Structure (SMILES) | IC50 (HepG2 [2]) [nM] | Efficacy (HepG2 [1]) [%] |
| --- | --- | --- |
| CO[C@H]1C[C@H](CC[C@H](C)[C@H](O)[C@H](C)[C@H]2OC(=O)/C=C/C(C)=C/C[C@H](O)C[C@@H]3C=CC[C@@H](C[C@H](OC)[C@@H](C)[C@@H](O)C[C@@H](O)[C@H](C)[C@@H]([C@@H](C)[C@@H](O)[C@@H](C)CC[C@H]4C[C@H](OC)C[C@H](C)O4)OC(=O)/C=C/C(C)=C/C[C@H](O)C[C@@H]4C=CC[C@@H](C[C@H](OC)[C@@H](C)[C@@H](O)C[C@@H](O)[C@@H]2C)O4)O3)O[C@@H](C)C1 [Swinholide A] | 20 |  |
